# Results: paper PMC10791743, “Selective CK1α degraders exert antiproliferative activity against a broad range of human cancer cell lines” (Nature Communications, 2024)
# Read-outs that look alike come from different tables or passages of the source.
# Experiments:
# Aqueous solubility assay = format: physicochemical; settings: DPBS buffer
# Description: page 30: ADME Methods Aqueous solubility assay: Solubility assays were conducted using a Biomek FX lab automation workstation (Beckman Coulter, Inc., Fullerton, CA) and μSOL Evolution software (pION Inc., Woburn, MA). In a 96-well microplate (Cat. No: 3363, Corning Incorporated, Salt Lake, UT), 10 μL of a 10 mM test compound stock in DMSO was added to 190 μL 1-propanol (Thermo Scientific, spectroscopy, Cat. No: 434360010, Fair Lawn, NJ) to create a reference stock plate. From this reference stock plate, 5 μL solutions were mixed with 70 μL 1-propanol and 75 μL Dulbecco's Phosphate Buffered Saline (DPBS, 1X, GibcoTM, Cat. No: 14190-144, Thermo Fisher Scientifics, Waltham, MA) to generate the reference plate (high sensitivity UV plate, Cat. No: 110286, pION Inc., Woburn, MA). In a 96-well storage plate (Cat. No: 201276-100, Agilent, Santa Clara, CA), 6 μL of a 10 mM test compound stock was added to 600 μL buffer, mixed, sealed, and incubated at room temperature for 18 hours. […] UV spectra of the reference and sample plates were then read, and calculations based on the area under the curve (AUC) of the UV spectra were performed using μSOL Evolution software. […] The medium in the wells was changed every other day, and the trans epithelial electrical resistance (TEER) value was measured
# [1] = Pharmacokinetics in female CD1 mice; format: in vivo, mouse; settings: mouse; for half-life: CD1, mouse, plasma
# Description: Three mice were housed in each cage. […] Temperature and humidity were recorded by an auto-controlled data logger system. All the animals were provided a laboratory rodent diet (Altromin, Germany). Reverse osmosis water treated with ultraviolet light was provided ad libitum. Total 27 mice (n = 9/group) were divided into three groups as Group 1, Group 2, and Group 3 with a sparse sampling design (3 mice/time points). […] The formulation vehicle for IV was 5% v/v NMP, 5% v/v Solutol HS-15 and 90% v/v Normal saline, and for PO & IP was 10%v/v NMP, 10%v/v Solutol HS-15. 50%v/v PEG-400 and 30%v/v HPβCD (20%w/v) in saline. […] Immediately after blood collection, plasma was harvested by centrifugation at 12,300×g, 10 min at 4 °C and samples were stored at −70 ± 10 °C until bioanalysis. Concentrations of SJ3149 in mouse plasma samples were determined by fit-for-purpose LC–MS/MS method. Non-Compartmental-Analysis tool of Phoenix WinNonlin® (Version 8.3) was used to assess the pharmacokinetic parameters. Peak plasma concentration (Cmax) and time for the peak plasma concentration (Tmax) were the observed values. The area under the concentration–time curve (AUClast) was calculated by the linear trapezoidal rule. The terminal elimination rate constant, ke was determined by regression analysis of the linear terminal portion of the log plasma concentration-time curve. Clearance was estimated as Dose/AUCinf and Vss as CL*MRT.
# MOLM-13 cells = test: Lenalidomide competition assay (40 μM lenalidomide), MOLM-13 viability; format: cell-based, human; settings: lenalidomide 40 μM
# Description: Having identified SJ7095 as a compound with a potent antiproliferative effect in MOLM-13 cells, we next examined whether the observed effect was CRBN-dependent. […] In an orthogonal approach, we tested SJ7095 in wild-type and CRBN-knockout MOLM-13 cells in a cell viability assay (Supplementary Fig. 1b).
# MOLM-13 cells were plated in Corning 8804BC white 384-well assay plates at the appropriate cell number per well and incubated overnight at 37 °C in a humidified 5 % CO2 incubator. Compounds were transferred to the assay plate from a dose-response plate using a Labcyte Echo 650 Acoustic Liquid Handler (Beckman Coulter , USA). Cytotoxicity was determined following 72 h of incubation using Promega’s CellTiter-Glo reagent according to the manufacturer’s recommendation.
# Luminescence was measured on the Envision plate reader (PerkinElmer, USA). Raw luminescence relative light unit (RLU) values for each compound at each concentration were normalized to obtain % activity using the following equation (1): 100 × [(mean(negctrl) – compound)/(mean (negctrl) – mean (posctrl))]. The % activity was converted to % viability using the following equation (2):
# (100 – % activity), and then pooled from replicate experiments prior to fitting. Here, negctrl and posctrl refer to the negative (DMSO) and positive controls (staurosporine) on each plate. […]
# [2] = female, CD1, plasma, IP 50 mg/kg
# [3] = female, CD1, plasma, IV 3 mg/kg
# [4] = female, CD1, plasma, PO 50 mg/kg
SMILES,solubility at 18 h (Aqueous solubility assay),"T1/2 ([1]; PO 50 mg/kg, 50 mg/kg)","half-life ([1]; female, ip, 50 mg/kg, IP 50 mg/kg)","half-life ([1]; female, iv, 3 mg/kg, IV 3 mg/kg)","half-life ([1]; female, po, 50 mg/kg, PO 50 mg/kg)","AUC(0-t) [1, 2]","Tmax [1, 2]","bioavailability [1, 2]","Cmax ([1]; female, CD1, plasma, IP 50 mg/kg, read-out: C0/Cmax)","AUC(0-t) [1, 3]","clearance [1, 3]","Cmax ([1]; female, CD1, plasma, IV 3 mg/kg, read-out: C0/Cmax (C0 back extrapolated))","Vd ([1]; female, CD1, plasma, IV 3 mg/kg, read-out: Vss)","AUC(0-t) [1, 4]","Tmax [1, 4]","bioavailability [1, 4]","Cmax ([1]; female, CD1, plasma, PO 50 mg/kg, read-out: C0/Cmax)","Cmax ([1]; female, CD1, plasma, PO 50 mg/kg, read-out: C0/Cmax (molar))",Antiproliferative effect in presence of excess lenalidomide (MOLM-13 cells)
O=C1CCC(N2Cc3cc(Nc4noc5ccccc45)ccc3C2=O)C(=O)N1 (stereo not shown) [SJ3149],36 µM,154 min,185 min,46.2 min,~180 min,17000 ng·h/mL,15 min,74%,6680 ng/mL,1370 ng·h/mL,36.2 mL/min/kg,4510 ng/mL,0.67 L/kg,2850 ng·h/mL,15 min,12%,4740 ng/mL,12.6 µM,–
O=C1CCC(N2Cc3c(CNC(=O)c4ccc(F)cc4)cccc3C2=O)C(=O)N1 (stereo not shown) [SJ7095],–,–,–,–,–,–,–,–,–,–,–,–,–,–,–,–,–,–,abrogating the antiproliferative effects
